US20040097433A1, “Chroman derivatives for the reduction of inflammation symptoms” (priority 2002, published 2004)

Legend:
[1] = test system: ELAM (E-selectin); assay: Cell-ELAM (E-selectin) assay; assay type: cell-based; conditions: Endothelial cell, 6 h, endothelial cells stimulated with LPS and IL-1β for 6 hours; E-selectin antibody ELISA; read-out: EC50 for reducing the expression of ELAM
Excerpt: Another useful cell screening assay, exemplified herein in Example 1B, is the E-selectin (ELAM) production assay, which measures activity of test compounds in reducing expression of ELAM in activated endothelial cells. Briefly, endothelial cells are activated by adding known activators such as lipopolysaccharide, TNF-α, or IL-1β, alone or in some combination. Activated cells produce ELAM, which can be measured using, for example, an E-selectin monoclonal antibody-based ELISA assay. In studies carried out in support of the present invention, ELAM production was decreased. As described herein, chroman derivatives were able to reduce ELAM production in an assay such as the one described in Example 1B.
B. Cell-ELAM Assay. Endothelial-Leukocyte Adhesion Molecule (ELAM), also known as E-selectin, is expressed on the surface of endothelial cells. In this assay, lipopolysaccharide (LPS) and IL-1β are used to stimulate the expression of ELAM; test agents are tested for their abilities to reduce this expression, in accordance with studies showing that reduction of leukocyte adhesion to endothelial cell surface is associated with decreased cellular damage (e.g., Takada, M., Et al., Transplantation 64: 1520-25, 1997; Steinberg, J. B., et al., J. Heart Lung Trans. 13:306-313, 1994).
Endothelial cells may be selected from any of a number of sources and cultured according to methods known in the art; including, for example, coronary artery endothelial cells, human brain microvascular endothelial cells (HBMEC; Hess, D. C., et al., Neurosci. Lett. 213(1): 37-40,1996), or lung endothelial cells. Cells are conveniently cultured in 96-well plates. […] Wells are allowed to develop for 35 minutes, before measurement at 402 nm in a Fluoroskan® Reader with shake program for 10 seconds. Positive results are recorded as a decrease in ELAM concentration in tested wells, as compared to control wells.

[2] = test system: CD-1 mice; assay: Arachidonic acid ear inflammation model; assay type: in vivo, mouse; conditions: topical to left ear, 20 μL in 70% ethanol/30% propylene glycol; ear punch weight difference one hour after treatment
Method: This assay measures the ability of test compounds to prevent or reduce inflammation secondary to oxazolone or arachidonic acid.
A. Arachidonic acid. Albino male CD-1 mice, 7-9 weeks old were used in this test. A 20% (w/v) arachidonic acid solution in acetone was prepared. Twenty microliters of the arachidonic acid solution was applied to the dorsal left ear of the mouse. Immediately thereafter, test compounds (20 μL in 70% ethanol/30% propylene glycol) were applied to the left ear. The untreated right ears served as control. Mice are sacrificed by CO2 inhalation, one hour after treatment. The left and right ears were removed and 7 mm punch biopsies taken from each. The punch biopsies were weighed, and the differences calculated.

[3] = test system: CRP; assay: Human Hep3B cells CRP assay; assay type: cell-based; conditions: for reduction of CRP levels (in words): CRP assay of Example 1A; for EC50: Homo sapiens, 72 h, Hep3B cells stimulated with IL-1β, IL-6 and dexamethasone, three days, CRP ELISA on supernatant, normalized to cell count, read-out: EC50 for reducing CRP levels
Method: In studies carried out in support of the present invention, a combination of Interleukin-1β, IL-6, and dexamethasone is used to induce CRP production, and counter-agents are tested for their ability to reduce this production in cultured liver cells, as detailed in Example 1A. The assay is performed on cells grown in 96-well format allowing high throughput screening of compounds. As described herein, chroman derivatives were able to reduce CRP levels in an assay such as the one described in Example 1A.
A. Human Hep3B Cells—CRP assay. Hep3B Cell Line is obtained from the American Type Culture Collection (ATCC Catalog No. HB-8064). The Hep3B cell line was derived from liver tissue of […]. The cells are epithelial in morphology and produce tumors in nude mice. The cells produce α-fetoprotein, hepatitis B surface antigen, albumin, α-2-macroglobulin, α-1-antitrypsin, transferrin, plasminogen, complement C3 and β-lipoprotein (Knowles B B, et al., Science, 1980, 209:497499). This cell line has been widely used to study hepatocyte cytokine and acute phase protein release (e.g., Damtew B, et al., 1993, J. Immunol. 150:4001-4007).
HEP3B cells are grown in Minimum Essential Medium (MEM; GIBCO) supplemented with 10% Fetal Bovine Serum (FBS; Hyclone), 1× Penicillin/Streptomycin (GIBCO, Cat#. 15140-122) and 0.1 mM non-essential amino acids (GIBCO, Catalog No. 11140-050). Cells are thawed and transferred to warm medium according to standard methods known in the art.
Cells are incubated in flasks at 37° C. with 5% CO2 in an air atmosphere incubator. HEP3B growth media is changed every 2 days until the cells reach 70-80% confluence (approx. 3-4 days). For assay, the cells are transferred to 96-well plates, seeded at 5000 cells per well in culture media, and left to grow for 7 days in a 37° C. incubator (air supplemented with 5% CO2). Media is replaced daily until assay. […]
100 μl HRP-conjugated rabbit anti-human CRP (DAKO) diluted 1:500 (in CRP wash buffer) is added to each well, followed by incubation for 30 minutes at 37° C. […] Finally, 50 μl of 1M H2SO4 is added to each well and absorbance at 450 nm is immediately measured in a microtiter spectrophotometer.
CRP measured as above is normalized to cell count per well, using a cell viability assay, such as the Cell Tracker Green assay. […] Plates are immediately read using a Fluoroskan® flourometer with a 485 excitation/538 emission filter pair.

SMILES	EC50 [1]	protection in arachidonic acid ear inflammation assay [2]	reduction of CRP levels (in words) [3]	EC50 [3]
Cc1c(O)cc2c(c1C)OC(C)(CCC(=O)O)CC2 (stereo not drawn) [3-(6-hydroxy-2,7,8-trimethyl-chroman-2-yl)-propionic acid]	–	–	effective at reducing CRP levels	40 to 60 µM
COC(=O)CCC1(C)CCc2cc(O)c(C)c(C)c2O1 (stereo not drawn) [3-(6-hydroxy-2,7,8-trimethyl-chroman-2-yl)propionic acid methyl ester]	–	–	effective at reducing CRP levels	10 to 30 µM
Cc1c(C)c2c(c(C)c1O)CCC(C)(C(=O)NCC1C3CC4CC(C3)CC1C4)O2 (stereo not drawn) [6-Hydroxy-2,5,7,8-tetramethyl-chroman-2-carboxylic acid (adamantan-2-ylmethyl)-amide]	10 to 100 µM	–	–	–

The next lines start with results.

EC50 [1]	SMILES	protection in arachidonic acid ear inflammation assay [2]	reduction of CRP levels (in words) [3]	EC50 [3]
10 to 100 µM	COC(=O)CCC1(C)CCc2c(Br)c(O)c(C)c(C)c2O1 (stereo not drawn) [3-(5-Bromo-6-hydroxy-2,7,8-trimethyl-chroman-2-yl)-propionic acid methyl ester]	about 40%	–	–
10 to 100 µM	CC1(CCC(=O)O)CCc2ccc(O)c(O)c2O1 (stereo not drawn) [3-(7,8-Dihydroxy-2-methyl-chroman-2-yl)-propionic acid]	about 40%	–	–
